“And” between values parts separate entries of the source, which are not always exact repeats. Equal entries are not always repeated. Records with an inconclusive call do not appear.
Test system: MX-1 breast xenograft, nude mice, tumor weight T/C
Test: NCI In Vivo Anticancer Drug Screen. Data for tumor model Human Mammary Carcinoma MX-1 Xenograft (intrarenal inoculation) in NU/NU Swiss (nude) mice
Conditions: endpoint: mean tumor weight change, higher = larger tumour
Method in brief: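 Read-out: treated (T) over vehicle control (C) ratio of survival or tumor size. Dosing in animals carrying the transplanted tumor.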

[1] = dose: 75.0 mg/kg/injection, schedule: Q04DX003 (sc), vehicle: Klucel (hydroxypropylcellulose) (HPC)
[2] = dose: 600.0 mg/kg/injection, schedule: Q04DX003 (sc), vehicle: Klucel (hydroxypropylcellulose) (HPC)
[3] = dose: 12.5 mg/kg/injection, schedule: Q01DX010 (sc), vehicle: saline with Tween-80
[4] = dose: 1.0 mg/kg/injection, schedule: Q01DX010 (sc), vehicle: saline
[5] = dose: 2.0 mg/kg/injection, schedule: Q01DX010 (sc), vehicle: saline
[6] = dose: 4.0 mg/kg/injection, schedule: Q01DX010 (sc), vehicle: saline
[7] = dose: 600.0 mg/kg/injection, schedule: Q04DX003 (sc), vehicle: saline with Tween-80
[8] = dose: 100.0 mg/kg/injection, schedule: Q04DX003 (sc), vehicle: Klucel (hydroxypropylcellulose) (HPC)
[9] = dose: 200.0 mg/kg/injection, schedule: Q04DX003 (sc), vehicle: Klucel (hydroxypropylcellulose) (HPC)
[10] = dose: 400.0 mg/kg/injection, schedule: Q04DX003 (sc), vehicle: Klucel (hydroxypropylcellulose) (HPC)
[11] = dose: 300.0 mg/kg/injection, schedule: Q04DX003 (sc), vehicle: saline with Tween-80

`O=C1C2(Cl)C3(Cl)C4(Cl)C(Cl)(Cl)C5(Cl)[C@]3(Cl)C1(Cl)[C@]5(Cl)C24Cl` (some centres undefined) was tested, and the T/C (dose: 37.5 mg/kg/injection, schedule: Q04DX003 (sc), vehicle: Klucel (hydroxypropylcellulose) (HPC)) was 120 % of control and the T/C [1] was 121 % of control.

`COC1N(C2CC(O)C(CO)O2)C(=O)NC(=O)C1(F)Br` (centres undefined) was tested, and the T/C (dose: 12.5 mg/kg/injection, schedule: Q01DX010 (sc), vehicle: saline) was 117 % of control.

`O=[N+]([O-])c1c(O)c(CNCCCO)cc(CNCCCO)c1O` was tested, and the T/C (dose: 37.5 mg/kg/injection, schedule: Q04DX003 (ip), vehicle: suspension in saline) was 50 % of control and the T/C (dose: 75.0 mg/kg/injection, schedule: Q04DX003 (ip), vehicle: suspension in saline) was 55 % of control.

`COc1ccc2[nH]c3c(c2c1)CCNC3CC(C)CCC=C(C)C` (centres undefined) was tested, and the T/C [1] was 114 % of control and the T/C (dose: 150.0 mg/kg/injection, schedule: Q04DX003 (sc), vehicle: Klucel (hydroxypropylcellulose) (HPC)) was 119 % of control.

`O=C(O)Cc1cccc2c(=O)cc(-c3ccccc3)oc12` was tested, and the T/C (dose: 100.0 mg/kg/injection, schedule: Q04DX003 (ip), vehicle: suspension in saline) was 75 % of control.

In the case of `CN(C)c1ccc2c(NCCCCCCNc3ccnc4cc(N(C)C)ccc34)ccnc2c1`, the T/C (dose: 37.5 mg/kg/injection, schedule: Q04DX003 (sc), vehicle: distilled water + Tween-80 + alcohol) was 72 % of control, the T/C (dose: 75.0 mg/kg/injection, schedule: Q04DX003 (sc), vehicle: distilled water + Tween-80 + alcohol) was 63 % of control and 64 % of control and the T/C (dose: 600.0 mg/kg/injection, schedule: Q04DX003 (sc), vehicle: distilled water + Tween-80 + alcohol) was 34 % of control and 54 % of control.

With `NC(CCC(=O)NC(CS)C(=O)NCC(=O)O)C(=O)O` (centres undefined) the T/C (dose: 300.0 mg/kg/injection, schedule: Q04DX003 (sc), vehicle: saline) was 87 % of control, the T/C (dose: 600.0 mg/kg/injection, schedule: Q04DX003 (sc), vehicle: saline) was 93 % of control and the T/C (dose: 1200.0 mg/kg/injection, schedule: Q04DX003 (sc), vehicle: saline) was 104 % of control. The T/C (dose: 2400.0 mg/kg/injection, schedule: Q04DX003 (sc), vehicle: saline) was 89 % of control.

For `S=C(Nc1ccc(Cl)c(Cl)c1)N1c2ccccc2-n2cccc2C1c1cccnc1` (centres undefined), the T/C (dose: 300.0 mg/kg/injection, schedule: Q04DX003 (sc), vehicle: Klucel (hydroxypropylcellulose) (HPC)) was 123 % of control, the T/C [2] was 89 % of control and the T/C (dose: 1200.0 mg/kg/injection, schedule: Q04DX003 (sc), vehicle: Klucel (hydroxypropylcellulose) (HPC)) was 108 % of control. The T/C (dose: 2400.0 mg/kg/injection, schedule: Q04DX003 (sc), vehicle: Klucel (hydroxypropylcellulose) (HPC)) was 108 % of control.

With `CN(N=O)C(N)=O` the T/C [3] was 41 % of control, the T/C (dose: 12.5 mg/kg/injection, schedule: Q04DX003 (sc), vehicle: saline) was 83 % of control and the T/C (dose: 25.0 mg/kg/injection, schedule: Q04DX003 (sc), vehicle: saline) was 54 % of control. For the same molecule, the T/C (dose: 25.0 mg/kg/injection, schedule: Q04DX003 (sc), vehicle: suspension in saline) was 54 % of control, the T/C (dose: 50.0 mg/kg/injection, schedule: Q04DX003 (sc), vehicle: saline with Tween-80) was 17 % of control and the T/C (dose: 50.0 mg/kg/injection, schedule: Q04DX003 (sc), vehicle: saline) was 6 % of control. The T/C (dose: 50.0 mg/kg/injection, schedule: Q04DX003 (sc), vehicle: suspension in saline) was 63 % of control, the T/C (dose: 100.0 mg/kg/injection, schedule: Q04DX003 (sc), vehicle: saline with Tween-80) was -68 % of control and the T/C (dose: 100.0 mg/kg/injection, schedule: Q04DX003 (sc), vehicle: saline) was -100 % of control. The T/C (dose: 100.0 mg/kg/injection, schedule: Q04DX003 (sc), vehicle: suspension in saline) was 17 % of control.

`O=NNc1ccccn1` was tested, and the T/C [4] was 78 % of control, the T/C [5] was 86 % of control and the T/C (dose: 3.13 mg/kg/injection, schedule: Q01DX010 (sc), vehicle: saline) was 20 % of control. The T/C [6] was 163 % of control, the T/C (dose: 6.25 mg/kg/injection, schedule: Q01DX010 (sc), vehicle: saline) was 50 % of control and 72 % of control and the T/C (dose: 8.0 mg/kg/injection, schedule: Q04DX003 (sc), vehicle: saline) was 103 % of control. For the same molecule, the T/C (dose: 25.0 mg/kg/injection, schedule: Q01DX010 (sc), vehicle: saline) was 1 % of control and the T/C (dose: 64.0 mg/kg/injection, schedule: Q01DX010 (sc), vehicle: saline) was -87 % of control.

For `CC1(C)OC1CS(=O)c1ccccc1` (centres undefined), the T/C [7] was 121 % of control.

For `CCNC(=O)OCc1c(COC(=O)NCC)c(-c2ccc(Cl)c(Cl)c2)n2c1CCC2`, the T/C [3] was 46 % of control, the T/C (dose: 25.0 mg/kg/injection, schedule: Q01DX010 (sc), vehicle: saline with Tween-80) was 10 % of control and the T/C (dose: 50.0 mg/kg/injection, schedule: Q01DX010 (sc), vehicle: saline with Tween-80) was 3 % of control and 8 % of control. The T/C (dose: 100.0 mg/kg/injection, schedule: Q01DX010 (sc), vehicle: saline with Tween-80) was 4 % of control.

With `COc1cc2c(cc1O)N=C[C@@H]1CCC(O)N1C2=O` (mixture of isomers) the T/C [4] was 295 % of control, the T/C [5] was 197 % of control and the T/C [6] was 214 % of control. The T/C (dose: 8.0 mg/kg/injection, schedule: Q01DX010 (sc), vehicle: saline) was 187 % of control.

`O=C1NC(O)c2ccccc2O1` (centres undefined) was tested, and the T/C (dose: 300.0 mg/kg/injection, schedule: Q04DX003 (sc), vehicle: suspension in saline) was 25 % of control, the T/C (dose: 600.0 mg/kg/injection, schedule: Q04DX003 (sc), vehicle: suspension in saline) was 30 % of control and the T/C (dose: 1200.0 mg/kg/injection, schedule: Q04DX003 (sc), vehicle: suspension in saline) was 26 % of control. For the same molecule, the T/C (dose: 2400.0 mg/kg/injection, schedule: Q04DX003 (sc), vehicle: suspension in saline) was 29 % of control.

In the case of `Cc1nc(N)nc(N)c1-c1ccc(Cl)c(Cl)c1`, the T/C (dose: 0.47 mg/kg/injection, schedule: Q04DX003 (sc), vehicle: saline) was 100 % of control, the T/C (dose: 0.94 mg/kg/injection, schedule: Q04DX003 (sc), vehicle: saline) was 80 % of control and the T/C (dose: 3.0 mg/kg/injection, schedule: Q04DX003 (sc), vehicle: saline) was 84 % of control. For the same molecule, the T/C (dose: 3.75 mg/kg/injection, schedule: Q04DX003 (sc), vehicle: saline) was 102 % of control, the T/C (dose: 6.0 mg/kg/injection, schedule: Q04DX003 (sc), vehicle: saline) was 107 % of control and the T/C (dose: 12.0 mg/kg/injection, schedule: Q04DX003 (sc), vehicle: saline) was 87 % of control.

In the case of `C(CSC1=NCCN1)CSC1=NCCN1`, the T/C (dose: 50.0 mg/kg/injection, schedule: Q01DX010 (sc), vehicle: saline) was 103 % of control.

For `CCc1ccccc1N1CCN(C(=O)c2cc(OC)c(OC)c(OC)c2)CC1`, the T/C [8] was 88 % of control, the T/C [9] was 86 % of control and the T/C [10] was 50 % of control.

With `O=c1cc(-c2ccccc2)[nH]c2c1CCCC2` the T/C [11] was 54 % of control, the T/C [7] was 53 % of control and the T/C (dose: 1200.0 mg/kg/injection, schedule: Q04DX003 (sc), vehicle: saline with Tween-80) was 65 % of control. The T/C (dose: 2400.0 mg/kg/injection, schedule: Q04DX003 (sc), vehicle: saline with Tween-80) was 96 % of control.

`NCCc1ccc(O)c(O)c1` was tested, and the T/C (dose: 100.0 mg/kg/injection, schedule: Q01DX010 (sc), vehicle: saline) was 77 % of control, the T/C (dose: 200.0 mg/kg/injection, schedule: Q01DX010 (sc), vehicle: saline) was 62 % of control and the T/C (dose: 400.0 mg/kg/injection, schedule: Q01DX010 (sc), vehicle: saline) was 80 % of control. The T/C (dose: 800.0 mg/kg/injection, schedule: Q01DX010 (sc), vehicle: saline) was 61 % of control.

With `O=S(=O)(SC(S(=O)(=O)c1ccccc1)S(=O)(=O)c1ccccc1)c1ccccc1` the T/C [8] was 68 % of control, the T/C [9] was 42 % of control and the T/C [10] was 84 % of control. The T/C [2] was 100 % of control, the T/C (dose: 800.0 mg/kg/injection, schedule: Q04DX003 (sc), vehicle: Klucel (hydroxypropylcellulose) (HPC)) was 87 % of control and 98 % of control and the T/C (dose: 1600.0 mg/kg/injection, schedule: Q04DX003 (sc), vehicle: Klucel (hydroxypropylcellulose) (HPC)) was 112 % of control.

For `Cc1cc(=O)n2c3c(c4c(cc13)c(CN(C)C)cc(=O)n4C)OC2`, the T/C (dose: 75.0 mg/kg/injection, schedule: Q04DX003 (sc), vehicle: saline with Tween-80) was 109 % of control, the T/C (dose: 150.0 mg/kg/injection, schedule: Q04DX003 (sc), vehicle: saline with Tween-80) was 151 % of control and the T/C [11] was 80 % of control.

In the case of `COC1CC(C)C(OC)C2=CC(=O)C=C(NC(=O)/C(C)=C/C=C\C(C)C(OC(N)=O)/C(C)=C\C(C)C1OC)C2=O` (centres undefined), the T/C (dose: 12.5 mg/kg/injection, schedule: Q04DX003 (sc), vehicle: saline + alcohol) was 81 % of control and the T/C (dose: 25.0 mg/kg/injection, schedule: Q04DX003 (sc), vehicle: saline + alcohol) was 97 % of control.

— PubChem BioAssay AID296 (DTP/NCI, 2004)
